Legend:
Assay in all cases: Glasshouse herbicidal test, pre- and post-emergence, percentage damage to the plant
Assay type in all cases: in vivo
Avena fatua (AVEFA) = settings: 250 g/h, evaluated after 13 days; for AVEFA POST percentage damage caused to the plant (five-point scale): post-emergence; for AVEFA PRE percentage damage caused to the plant (five-point scale): pre-emergence
Description: (§1) Seeds of a variety of test species are sown in standard soil in pots (Lolium perenne (LOLPE), Setaria faberi (SETFA), Alopecurus myosuroides (ALOMY), Echinochloa crus-galli (ECHCG), Avena fatua (AVEFA)). After cultivation for one day (pre-emergence) or after 8 days cultivation (post-emergence) under controlled conditions in a glasshouse (at 24/16° C., day/night; 14 hours light; 65% humidity), the plants are sprayed with an aqueous spray solution derived from the formulation of the technical active ingredient in acetone/water (50:50) solution containing 0.5% Tween 20 (polyoxyethelyene sorbitan monolaurate, CAS RN 9005-64-5). Compounds are applied at 250 g/h. The test plants are then grown in a glasshouse under controlled conditions in a glasshouse (at 24/16° C., day/night; 14 hours light; 65% humidity) and watered twice daily. After 13 days for pre and post-emergence, the test is evaluated for the percentage damage caused to the plant. The biological activities are shown in the following table on a five-point scale (5=80-100%; 4=60-79%; 3=40-59%; 2=20-39%; 1=0-19%).

Setaria faberi (SETFA) = settings: 250 g/h, evaluated after 13 days; for SETFA POST percentage damage caused to the plant (five-point scale): post-emergence; for SETFA PRE percentage damage caused to the plant (five-point scale): pre-emergence
Description: as §1

[1] = test system: Alopecurus myosuroides (ALOMY); settings: 250 g/h, evaluated after 13 days; for ALOMY POST percentage damage caused to the plant (five-point scale): post-emergence; for ALOMY PRE percentage damage caused to the plant (five-point scale): pre-emergence
Description: as §1

Lolium perenne (LOLPE) = settings: 250 g/h, evaluated after 13 days; for LOLPE POST percentage damage caused to the plant (five-point scale): post-emergence; for LOLPE PRE percentage damage caused to the plant (five-point scale): pre-emergence
Description: as §1

[2] = test system: Echinochloa crus-galli (ECHCG); settings: 250 g/h, evaluated after 13 days; for ECHCG POST percentage damage caused to the plant (five-point scale): post-emergence; for ECHCG PRE percentage damage caused to the plant (five-point scale): pre-emergence
Description: as §1

CC#Cc1cc(C)c(C2C(=O)CC3(CCN4C(=O)CCC4C3)CC2=O)c(C)c1 (stereo not drawn) [Compound A14]
5 (5=80-100%): AVEFA POST percentage damage caused to the plant (five-point scale) (Avena fatua (AVEFA)) | AVEFA PRE percentage damage caused to the plant (five-point scale) (Avena fatua (AVEFA)) | SETFA POST percentage damage caused to the plant (five-point scale) (Setaria faberi (SETFA)) | SETFA PRE percentage damage caused to the plant (five-point scale) (Setaria faberi (SETFA)) | ALOMY POST percentage damage caused to the plant (five-point scale) [1] | ALOMY PRE percentage damage caused to the plant (five-point scale) [1] | LOLPE POST percentage damage caused to the plant (five-point scale) (Lolium perenne (LOLPE)) | LOLPE PRE percentage damage caused to the plant (five-point scale) (Lolium perenne (LOLPE)) | ECHCG POST percentage damage caused to the plant (five-point scale) [2] | ECHCG PRE percentage damage caused to the plant (five-point scale) [2]

CC#Cc1cc(C)c(C2C(=O)CC3(C=CN(C(=O)COC)CC3)CC2=O)c(C)c1 (stereo not drawn) [Compound A15]
5 (5=80-100%): AVEFA POST percentage damage caused to the plant (five-point scale) (Avena fatua (AVEFA)) | AVEFA PRE percentage damage caused to the plant (five-point scale) (Avena fatua (AVEFA)) | SETFA POST percentage damage caused to the plant (five-point scale) (Setaria faberi (SETFA)) | SETFA PRE percentage damage caused to the plant (five-point scale) (Setaria faberi (SETFA)) | ALOMY POST percentage damage caused to the plant (five-point scale) [1] | ALOMY PRE percentage damage caused to the plant (five-point scale) [1] | LOLPE POST percentage damage caused to the plant (five-point scale) (Lolium perenne (LOLPE)) | LOLPE PRE percentage damage caused to the plant (five-point scale) (Lolium perenne (LOLPE)) | ECHCG POST percentage damage caused to the plant (five-point scale) [2] | ECHCG PRE percentage damage caused to the plant (five-point scale) [2]

CC#Cc1cc(C)c(C2C(=O)CC3(C=CN(C(=O)c4ccccn4)CC3)CC2=O)c(C)c1 (stereo not drawn) [Compound A48]
5 (5=80-100%): AVEFA POST percentage damage caused to the plant (five-point scale) (Avena fatua (AVEFA)) | AVEFA PRE percentage damage caused to the plant (five-point scale) (Avena fatua (AVEFA)) | SETFA POST percentage damage caused to the plant (five-point scale) (Setaria faberi (SETFA)) | SETFA PRE percentage damage caused to the plant (five-point scale) (Setaria faberi (SETFA)) | ALOMY POST percentage damage caused to the plant (five-point scale) [1] | ALOMY PRE percentage damage caused to the plant (five-point scale) [1] | LOLPE POST percentage damage caused to the plant (five-point scale) (Lolium perenne (LOLPE)) | LOLPE PRE percentage damage caused to the plant (five-point scale) (Lolium perenne (LOLPE)) | ECHCG POST percentage damage caused to the plant (five-point scale) [2] | ECHCG PRE percentage damage caused to the plant (five-point scale) [2]

CC#Cc1cc(C)c(C2C(=O)CC3(C=CN(C(=O)C4CC4)CC3)CC2=O)c(C)c1 (stereo not drawn) [Compound A49]
5 (5=80-100%): AVEFA POST percentage damage caused to the plant (five-point scale) (Avena fatua (AVEFA)) | AVEFA PRE percentage damage caused to the plant (five-point scale) (Avena fatua (AVEFA)) | SETFA POST percentage damage caused to the plant (five-point scale) (Setaria faberi (SETFA)) | SETFA PRE percentage damage caused to the plant (five-point scale) (Setaria faberi (SETFA)) | ALOMY POST percentage damage caused to the plant (five-point scale) [1] | ALOMY PRE percentage damage caused to the plant (five-point scale) [1] | LOLPE POST percentage damage caused to the plant (five-point scale) (Lolium perenne (LOLPE)) | LOLPE PRE percentage damage caused to the plant (five-point scale) (Lolium perenne (LOLPE)) | ECHCG POST percentage damage caused to the plant (five-point scale) [2] | ECHCG PRE percentage damage caused to the plant (five-point scale) [2]

CC#Cc1cc(C)c(C2C(=O)CC3(C=CN(C(=O)COC(F)F)CC3)CC2=O)c(C)c1 (stereo not drawn) [Compound A50]
5 (5=80-100%): AVEFA POST percentage damage caused to the plant (five-point scale) (Avena fatua (AVEFA)) | AVEFA PRE percentage damage caused to the plant (five-point scale) (Avena fatua (AVEFA)) | SETFA POST percentage damage caused to the plant (five-point scale) (Setaria faberi (SETFA)) | SETFA PRE percentage damage caused to the plant (five-point scale) (Setaria faberi (SETFA)) | ALOMY POST percentage damage caused to the plant (five-point scale) [1] | ALOMY PRE percentage damage caused to the plant (five-point scale) [1] | LOLPE POST percentage damage caused to the plant (five-point scale) (Lolium perenne (LOLPE)) | LOLPE PRE percentage damage caused to the plant (five-point scale) (Lolium perenne (LOLPE)) | ECHCG POST percentage damage caused to the plant (five-point scale) [2] | ECHCG PRE percentage damage caused to the plant (five-point scale) [2]

CC#Cc1cc(C)c(C2C(=O)CC3(C=CN(C(=O)CC#N)CC3)CC2=O)c(C)c1 (stereo not drawn) [Compound A51]
5 (5=80-100%): AVEFA POST percentage damage caused to the plant (five-point scale) (Avena fatua (AVEFA)) | AVEFA PRE percentage damage caused to the plant (five-point scale) (Avena fatua (AVEFA)) | SETFA POST percentage damage caused to the plant (five-point scale) (Setaria faberi (SETFA)) | SETFA PRE percentage damage caused to the plant (five-point scale) (Setaria faberi (SETFA)) | ALOMY POST percentage damage caused to the plant (five-point scale) [1] | ALOMY PRE percentage damage caused to the plant (five-point scale) [1] | LOLPE POST percentage damage caused to the plant (five-point scale) (Lolium perenne (LOLPE)) | LOLPE PRE percentage damage caused to the plant (five-point scale) (Lolium perenne (LOLPE)) | ECHCG POST percentage damage caused to the plant (five-point scale) [2] | ECHCG PRE percentage damage caused to the plant (five-point scale) [2]
